Laboratory results published in US4470840A, “1-Triacontanol plant growth stimulator formulations” (Biochemical Research Corporation, priority 1981, dated 1984).

Experiments:
Format in all cases: in vivo
[1] = tested on: Hybrid Sweet Corn Seedlings (cv. Silver Queen); assay: Greenhouse trial: dry weight and water uptake of seedlings after foliar spraying; settings: for Increase in dry weight: 1-triacontanol 0.1 mg/liter, additive 9 mM (none in the last line); for % increase (dry weight) / % increase (water uptake) / Dry weight / Water uptake: metal ion 9 mM (none in the last line) with 1-triacontanol 0.1 mg/liter, pH 8 to 10; for Dry weight: control 0.86 g; for Water uptake: control 8.7 g
Method: (§1) In general, greenhouse trials were conducted as follows: eight to twelve seeds were sown per pot in Peat-Lite® Mix and received an average of 100 ml of water per day. After plants had the third true leaf (average), the various formulations were applied to the leaves as a fine mist at air temperatures listed in Table 1. Temperatures above 20° C., preferably 25°-30° C., are preferred.
(§2) The 1-triacontanol formulation most generally used consisted of a concentrate containing 5 mg of 1-triacontanol dissolved in 1 liter of acetone, with 20 ml of the concentrate being further dissolved to 1 liter with water having a pH between 8 and 10, with over a pH of 11 also being effective. The pH was adjusted with aqueous NaOH and the concentrate added just prior to spraying.
(§3) When other plant growth substances were added to the formulations, these were added either to the concentrate in the polar organic solvent or alternatively in the aqueous solution, depending on the solubility of the plant growth substance. All metal salts were added to the water used to spray the 1-triacontanol formulations. After spraying, preferably about four to nine days or more, plants were harvested with roots, and fresh weights were obtained. Plants were then dried in an oven, preferably at a temperature below 100° C., until constant weight was obtained, and dry weight values were obtained for each plot. Subtraction of the dry weights from the fresh weights gave the water uptake weights (water content) of each plot. The weights of the above mentioned seedlings were compared to the control weights to obtain the percent increases.
(§4) It is particularly advantageous to arrange each of the potted plants in size range categories corresponding to the number of replications used. For example, if five replications are employed, plants are divided into five size categories, normally measured by the height of the plants. Treatments are then assigned randomly within each block (size category). This removes the variation due to plant size for statistical purposes, as is well practiced in the art. The resulting data is analyzed using any appropriate means, which may include the least significant difference method (L.S.D. method), Duncan's multiple range test, as used here (Biometrics, 11: 1 (1955)), or other means.

[2] = tested on: Hybrid Sweet Corn Seedlings (cv. Silver Queen); assay: Lengths of stems and total plant length of seedlings sprayed Day 7; settings: T = 1-triacontanol 0.1 mg/liter
[3] = tested on: Field Corn Seedlings (cv. Trojan TXS 94, Pioneer 3780, WF9 X Bear 38); assay: Greenhouse trial: dry weight and water uptake of seedlings after foliar spraying; settings: for Dry wt. increase: 1-triacontanol 0.1 mg/liter
Method: as §1, §2, §3, §4

[4] = 14-day old seedlings, Formulation 4
[5] = 14-day old seedlings, plant growth substance 0.10 mM, with 1-triacontanol 0.1 mg/liter
[6] = 14-day old seedlings, plant growth substance 0.10 mM, without 1-triacontanol
[7] = 14-day old seedlings, plant growth substance 0.01 mM, with 1-triacontanol 0.1 mg/liter
[8] = 14-day old seedlings, plant growth substance 0.01 mM, without 1-triacontanol
[9] = plant growth substance 0.01 mM, CaCl2 10 mM, 1-triacontanol 0.5 mg per liter, pH 8
[10] = plant growth substance 0.01 mM, CaCl2 50 mM, 1-triacontanol 0.5 mg per liter, pH 8
[11] = cv. Trojan TXS 94, metal salt 1 mM (1 ea. for the mixture), Formulation 4
[12] = 14-day old seedlings, metal salt 1 mM (1 ea. for the mixture), with 1-triacontanol 0.1 mg/liter, Formulation 4
[13] = 14-day old seedlings, metal salt 5 mM, with 1-triacontanol 0.1 mg/liter, Formulation 4
[14] = 14-day old seedlings, metal salt 5 mM, with 1-triacontanol 0.1 mg/liter, Formulation 11 (chloroform, Tween-20)
[15] = 14-day old seedlings, metal salt 10 mM, with 1-triacontanol 0.1 mg/liter, Formulation 4
[16] = 14-day old seedlings, metal salt 10 mM, with 1-triacontanol 0.1 mg/liter, Formulation 11 (chloroform, Tween-20)
[17] = 14-day old seedlings, metal salt 10 mM, without 1-triacontanol, Formulation 4
[18] = cv. Trojan TXS 94, brassinosteroid 0.4 μM w/o triacontanol, Formulation 7
[19] = cv. Trojan TXS 94, brassinosteroid 0.4 μM with 1-triacontanol 0.5 mg/liter containing 10 mM CaCl2, Formulation 7

## N.N.N.N.N.N.[Cl-].[Cl-].[Cl-].[Co+3] [Co(NH3)6 Cl3, reference compound]
[1]; Formulation 4
  Increase in dry weight: +13%

## [Zn+2] [Zn^+2]
[1]; [4]
  % increase (dry weight): +38%
  % increase (water uptake): +21%
  Dry weight: 1.17 g
  Water uptake: 10.5 g

## O=c1ccc(=O)[nH][nH]1 [MH, maleic hydrazide, reference compound]
[1]; [5]
  Increases, H2O uptake: -7%
  Increases, dry wt.: +12%
[1]; [6]
  Increases, H2O uptake: -1%
  Increases, dry wt.: +7%

## c1coc(CNc2ncnc3nc[nH]c23)c1 [Kinetin, 6-furfurylamino purine, reference compound]
[2]
  Increase in length "a": 0%
  Increase in length "b": +30%
[2]; control 11.5 cm
  Length "a" (stem to the first leaf): 11.5 cm
[2]; control 25.0 cm
  Length "b" (total plant length): 32.5 cm
[1]; [7]
  Increases, H2O uptake: +14%
  Increases, dry wt.: -21%
[1]; [8]
  Increases, H2O uptake: -3%
  Increases, dry wt.: -24%
[1]; [9]
  Increases, H2O uptake: +13%
  Increases, dry wt.: +3%
[1]; [10]
  Increases, H2O uptake: -2%
  Increases, dry wt.: +1%

## [Pb+2] [Pb^+2]
[1]; [4]
  % increase (dry weight): +81%
  % increase (water uptake): +55%
  Dry weight: 1.56 g
  Water uptake: 13.5 g

## [Ca+2].[Cl-].[Cl-] [CaCl2]
[3]; cv. Pioneer 3780, metal salt 0 mM, Formulation 11
  Dry wt. increase: -5%
[3]; cv. Pioneer 3780, metal salt 1 mM, Formulation 4
  Dry wt. increase: +19%
[3]; cv. Pioneer 3780, metal salt 7.5 mM, Formulation 4, NAA 1.0 μM
  Dry wt. increase: +32%
[3]; cv. Trojan TXS 94, metal salt 0.5 mM, Formulation 4
  Dry wt. increase: +22%
[3]; [11]
  Dry wt. increase: 20-30%
[3]; cv. Trojan TXS 94, metal salt 1 mM, Formulation 11
  Dry wt. increase: -10%
[3]; cv. Trojan TXS 94, metal salt 1.25 mM, Formulation 4
  Dry wt. increase: +30%
[3]; cv. Trojan TXS 94, metal salt 5 mM, Formulation 7, 2,4,5-T 10.0 μM
  Dry wt. increase: +22%
[3]; cv. Trojan TXS 94, metal salt 5 mM, Formulation 7, 2,4-D 10.0 μM
  Dry wt. increase: +23%
[3]; cv. Trojan TXS 94, metal salt 6 mM, Formulation 7, NAA 1.0 μM
  Dry wt. increase: +28%
[3]; cv. Trojan TXS 94, metal salt 3-5 mM, Formulation 7, IAA 10.0 μM
  Dry wt. increase: 20-30%
[3]; cv. WF9 X Bear 38, metal salt 1 mM, Formulation 4
  Dry wt. increase: +8%
[1]; Formulation 4
  Increase in dry weight: +50%
[1]; [12]
  Increases, H2O uptake: +35%
  Increases, dry wt.: +42%
[1]; [13]
  Increases, H2O uptake: +21%
  Increases, dry wt.: +50%
[1]; [14]
  Increases, H2O uptake: +6%
  Increases, dry wt.: +5%
[1]; [15]
  Increases, H2O uptake: +11%
  Increases, dry wt.: +65%
[1]; [16]
  Increases, H2O uptake: +9%
  Increases, dry wt.: -5%
[1]; [17]
  Increases, H2O uptake: -2%
  Increases, dry wt.: +4%

## O=C(O)c1cc(I)cc(I)c1I [TIBA, 2,3,5-triiodobenzoic acid, reference compound]
[1]; [5]
  Increases, H2O uptake: +1%
  Increases, dry wt.: +19%
[1]; [6]
  Increases, H2O uptake: -12%
  Increases, dry wt.: +10%

## [Cd+2] [Cd^+2]
[1]; [4]
  % increase (dry weight): +58%
  % increase (water uptake): +14%
  Dry weight: 1.36 g
  Water uptake: 9.9 g

## [Cl][La]([Cl])[Cl] [LaCl3]
[3]; [11]
  Dry wt. increase: 25-30%
[1]; [15]
  Increases, dry wt.: +72%
[1]; [17]
  Increases, H2O uptake: -2%
  Increases, dry wt.: +5%

## CC(C)CC(N)C(=O)[O-].CC(C)CC(N)C(=O)[O-].[Ca+2] (centres unmarked) [Metal Proteinate, reference compound]
[1]; Formulation 4
  Increase in dry weight: +15%

## O=C(O)COc1ccc(Cl)cc1Cl [2,4-D, 2,4-dichlorophenoxyacetic acid, reference compound]
[1]; [7]
  Increases, H2O uptake: -13%
  Increases, dry wt.: +17%
[1]; [8]
  Increases, H2O uptake: -9%
  Increases, dry wt.: +10%
[1]; formulations containing metal ions and synthetic auxin, cv. Silver Queen
  Increase in dry weight over controls: 100%

## O=S(=O)([O-])[O-].O=S(=O)([O-])[O-].[Ce+4] [Ce(SO4)2]
[1]; [12]
  Increases, H2O uptake: +26%
  Increases, dry wt.: +21%

## [Cl-].[Cl-].[Mg+2] [MgCl2]
[1]; [12]
  Increases, H2O uptake: +20%
  Increases, dry wt.: +21%

## CC(C)[C@@H](C)[C@H](O)[C@@H](O)[C@@H](C)[C@H]1CC[C@H]2[C@@H]3COC(=O)[C@H]4C[C@H](O)[C@H](O)C[C@]4(C)[C@H]3CC[C@]12C [Brassinosteroid, 2α,3α,22α,23α-tetrahydroxy-24α-methyl-B-hoo-5α-cholestan-6-one, reference compound]
[3]; [18]
  Increases, dry wt.: +11%
  Increases, water uptake: +8%
[3]; [19]
  Increases, dry wt.: +19%
  Increases, water uptake: +10%

## [Mg+2] [Mg^+2]
[1]; [4]
  % increase (dry weight): +73%
  % increase (water uptake): +55%
  Dry weight: 1.49 g
  Water uptake: 13.5 g

## [Ba+2] [Ba^+2]
[1]; [4]
  % increase (dry weight): +35%
  % increase (water uptake): +48%
  Dry weight: 1.16 g
  Water uptake: 12.9 g

## [Mn+2] [Mn^+2]
[1]; [4]
  % increase (dry weight): +31%
  % increase (water uptake): +25%
  Dry weight: 1.13 g
  Water uptake: 10.9 g

## [Sr+2] [Sr^+2]
[1]; [4]
  % increase (dry weight): +81%
  % increase (water uptake): +48%
  Dry weight: 1.56 g
  Water uptake: 12.9 g

## [Ca+2] [Ca^+2]
[1]; [4]
  % increase (dry weight): +50%
  % increase (water uptake): +16%
  Dry weight: 1.29 g
  Water uptake: 10.1 g

## [Cl][Mn][Cl] [MnCl2]
[1]; [12]
  Increases, H2O uptake: +29%
  Increases, dry wt.: +9%
